Data as given in PubChem BioAssay AID256 (DTP/NCI, 2004).
Where “and” joins values, the source holds several entries; their conditions need not be identical. Equal entries are not always repeated. Inconclusive results and toxic doses are left out. How the source made its calls: active means survival T/C of 150% or more; inactive means T/C below 125% in these data.

System: CD2F1 mice, L1210 leukemia ip, survival T/C
Assay: NCI In Vivo Anticancer Drug Screen. Data for tumor model L1210 Leukemia (intraperitoneal) in CD2F1 (CDF1) mice
Settings: higher = longer survival
Procedure, shortened: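 In this screen, transplantable tumors were grown in mice given either the compound or its vehicle. Results were expressed as the treated measurement relative to the control measurement.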

[1] = endpoint: mean survival time, dose: 100.0 mg/kg/injection, schedule: Q04DX002 (ip), vehicle: saline with Tween-80
[2] = endpoint: mean survival time, dose: 200.0 mg/kg/injection, schedule: Q04DX002 (ip), vehicle: saline with Tween-80
[3] = endpoint: mean survival time, dose: 400.0 mg/kg/injection, schedule: Q04DX002 (ip), vehicle: saline with Tween-80
[4] = endpoint: mean survival time, dose: 75.0 mg/kg/injection, schedule: Q01DX001 (ip), vehicle: other
[5] = endpoint: mean survival time, dose: 150.0 mg/kg/injection, schedule: Q01DX001 (ip), vehicle: other
[6] = endpoint: mean survival time, dose: 50.0 mg/kg/injection, schedule: Q04DX003 (ip), vehicle: saline
[7] = endpoint: mean survival time, dose: 100.0 mg/kg/injection, schedule: Q04DX003 (ip), vehicle: saline
[8] = endpoint: mean survival time, dose: 200.0 mg/kg/injection, schedule: Q04DX003 (ip), vehicle: saline
[9] = endpoint: mean survival time, dose: 12.5 mg/kg/injection, schedule: Q01DX009 (ip), vehicle: saline with Tween-80
[10] = endpoint: mean survival time, dose: 100.0 mg/kg/injection, schedule: Q04DX003 (ip), vehicle: saline with Tween-80
[11] = endpoint: mean survival time, dose: 200.0 mg/kg/injection, schedule: Q04DX003 (ip), vehicle: saline with Tween-80
[12] = endpoint: mean survival time, dose: 400.0 mg/kg/injection, schedule: Q04DX003 (ip), vehicle: saline with Tween-80
[13] = endpoint: mean survival time, dose: 100.0 mg/kg/injection, schedule: Q01DX001 (ip), vehicle: saline with Tween-80
[14] = endpoint: mean survival time, dose: 200.0 mg/kg/injection, schedule: Q01DX001 (ip), vehicle: saline with Tween-80
[15] = endpoint: mean survival time, dose: 400.0 mg/kg/injection, schedule: Q01DX001 (ip), vehicle: saline with Tween-80

Measured: T/C

C/C(=N\NC(N)=S)C1=C(O)C(Cc2ccccc2)NC1=O (stereo unspecified)
inactive: [1] 100 % of control | [2] 100 % of control | [3] 100 % of control

Nc1nc(N)n(-c2ccccn2)n1
inactive: [4] 101 % of control | [5] 97 % of control

Cc1ccc(N=Cc2cc(I)cc(I)c2O)cc1.Cc1ccc(N=Cc2cc(I)cc(I)c2O)cc1.[Co]
inactive: [6] 87 % of control | [7] 104 % of control | [8] 96 % of control

CC12CCC(C/C1=N\O)C2(C)C (stereo unspecified)
inactive: [9] 106 % of control | endpoint: mean survival time, dose: 25.0 mg/kg/injection, schedule: Q01DX009 (ip), vehicle: saline with Tween-80 97 % of control | endpoint: mean survival time, dose: 50.0 mg/kg/injection, schedule: Q01DX009 (ip), vehicle: saline with Tween-80 102 % of control

c1ccc2c(c1)Oc1ccccc1C2C1c2ccccc2Oc2ccccc21
inactive: [10] 100 % of control | [11] 100 % of control | [12] 116 % of control

Nc1ccc(N=Nc2cccnc2)cc1
inactive: endpoint: mean survival time, dose: 100.0 mg/kg/injection, schedule: Q04DX002 (ip), vehicle: other 103 % of control | endpoint: mean survival time, dose: 200.0 mg/kg/injection, schedule: Q04DX002 (ip), vehicle: other 88 % of control

Nc1ccccc1C(=O)O
inactive: [13] 97 % of control | [14] 100 % of control | [15] 100 % of control

CCCCCCCCCCCCCCCC(=O)N(CCCN)c1ccc(N(CCCN)C(=O)CCCCCCCCCCCCCCC)cc1
inactive: [10] 98 % of control | [11] 98 % of control | [12] 97 % of control

COc1ccc2c(c1C)CN1CCc3cc4c(cc3C1=C2)OCO4
inactive: [4] 94 % of control | [5] 88 % of control | endpoint: mean survival time, dose: 300.0 mg/kg/injection, schedule: Q01DX001 (ip), vehicle: other 88 % of control

O=c1cn[nH]c2c(Br)cc(Br)cc12
inactive: [10] 103 % of control | [11] 97 % of control | [12] 97 % of control

O=C(/C=C(/c1ccccc1)P(=O)(c1ccccc1)c1ccccc1)c1ccccc1
inactive: [10] 98 % of control | [11] 93 % of control | [12] 88 % of control

Cn1c(=O)c2c(ncn2C)n(C)c1=O.[Cl][Pt]([Cl])[Cl]
inactive: endpoint: mean survival time, dose: 3.13 mg/kg/injection, schedule: Q04DX003 (ip), vehicle: saline 112 % of control | endpoint: mean survival time, dose: 3.13 mg/kg/injection, schedule: Q04DX003 (ip), vehicle: water 98 % of control | endpoint: mean survival time, dose: 6.25 mg/kg/injection, schedule: Q04DX003 (ip), vehicle: saline 104 % of control | endpoint: mean survival time, dose: 6.25 mg/kg/injection, schedule: Q04DX003 (ip), vehicle: water 95 % of control | endpoint: mean survival time, dose: 12.5 mg/kg/injection, schedule: Q04DX003 (ip), vehicle: saline 106 % of control | endpoint: mean survival time, dose: 12.5 mg/kg/injection, schedule: Q04DX003 (ip), vehicle: water 104 % of control | endpoint: mean survival time, dose: 25.0 mg/kg/injection, schedule: Q04DX003 (ip), vehicle: saline 102 % of control | endpoint: mean survival time, dose: 25.0 mg/kg/injection, schedule: Q04DX003 (ip), vehicle: water 102 % of control | [6] 106 % of control | endpoint: mean survival time, dose: 50.0 mg/kg/injection, schedule: Q04DX003 (ip), vehicle: water 104 % of control | [7] 112 % of control | endpoint: mean survival time, dose: 100.0 mg/kg/injection, schedule: Q04DX003 (ip), vehicle: water 118 % of control | [8] 111 % of control

Nc1nc2c(ncn2-c2ccc(-c3ccccc3)cc2)c(=O)[nH]1
inactive: [13] 93 % of control and 108 % of control | [1] 97 % of control | [14] 87 % of control and 89 % of control | [2] 93 % of control | [15] 93 % of control | [3] 89 % of control

COC(=O)c1ccc(NC(=O)Cc2c(O)c3c(c(C)c2OC)COC3=O)cc1N
inactive: endpoint: mean survival time, dose: 100.0 mg/kg/injection, schedule: Q04DX002 (ip), vehicle: saline 100 % of control | endpoint: mean survival time, dose: 200.0 mg/kg/injection, schedule: Q04DX002 (ip), vehicle: saline 112 % of control | endpoint: median survival time, dose: 100.0 mg/kg/injection, schedule: Q04DX002 (ip), vehicle: saline 102 % of control | endpoint: median survival time, dose: 200.0 mg/kg/injection, schedule: Q04DX002 (ip), vehicle: saline 106 % of control

CS(=N)(=O)c1ccccc1 (stereo unspecified)
inactive: [7] 105 % of control | [8] 103 % of control | endpoint: mean survival time, dose: 400.0 mg/kg/injection, schedule: Q04DX003 (ip), vehicle: saline 94 % of control

CN(C)NC(=O)CC(N)C(=O)O (stereo unspecified)
inactive: [10] 101 % of control | [11] 101 % of control | [12] 102 % of control

CSc1ccc(NC(=O)N(CCCl)N=O)cc1
inactive: endpoint: mean survival time, dose: 2.3 mg/kg/injection, schedule: Q01DX001 (ip), vehicle: other 121 % of control | endpoint: mean survival time, dose: 3.5 mg/kg/injection, schedule: Q01DX001 (ip), vehicle: other 122 % of control

O=C(Nc1cc(Cl)c(I)cc1Cl)C(F)(F)F
inactive: endpoint: mean survival time, dose: 100.0 mg/kg/injection, schedule: Q01DX001 (ip), vehicle: saline 102 % of control | endpoint: mean survival time, dose: 200.0 mg/kg/injection, schedule: Q01DX001 (ip), vehicle: saline 111 % of control | endpoint: mean survival time, dose: 400.0 mg/kg/injection, schedule: Q01DX001 (ip), vehicle: saline 90 % of control

O=C1C=CC(=O)N1c1ccc2c(c1)OCO2
inactive: endpoint: mean survival time, dose: 6.25 mg/kg/injection, schedule: Q01DX009 (ip), vehicle: saline with Tween-80 91 % of control | [9] 86 % of control

CC(C)(C)c1ccc(C(=O)C2CC2)cc1
inactive: [10] 98 % of control | [11] 96 % of control

CCOC(=O)N(N=O)c1ccc2c(c1)Cc1cc([N+](=O)[O-])ccc1-2
inactive: endpoint: mean survival time, dose: 100.0 mg/kg/injection, schedule: Q01DX001 (ip), vehicle: carboxymethylcellulose (CMC) 105 % of control | endpoint: mean survival time, dose: 200.0 mg/kg/injection, schedule: Q01DX001 (ip), vehicle: carboxymethylcellulose (CMC) 105 % of control | endpoint: mean survival time, dose: 400.0 mg/kg/injection, schedule: Q01DX001 (ip), vehicle: carboxymethylcellulose (CMC) 97 % of control

Cc1ccc2snc(C(=O)O)c2c1[N+](=O)[O-]
inactive: [10] 98 % of control | [11] 104 % of control | [12] 103 % of control

O.O.[Cl][Pt+2][Cl].[NH-]CC[NH-]
inactive: endpoint: median survival time, dose: 3.12 mg/kg/injection, schedule: Q04DX003 (ip), vehicle: distilled water + Tween-80 101 % of control | endpoint: median survival time, dose: 6.25 mg/kg/injection, schedule: Q04DX003 (ip), vehicle: distilled water + Tween-80 102 % of control | endpoint: median survival time, dose: 12.5 mg/kg/injection, schedule: Q04DX003 (ip), vehicle: distilled water + Tween-80 111 % of control | endpoint: median survival time, dose: 25.0 mg/kg/injection, schedule: Q04DX003 (ip), vehicle: distilled water + Tween-80 108 % of control | endpoint: median survival time, dose: 50.0 mg/kg/injection, schedule: Q04DX003 (ip), vehicle: distilled water + Tween-80 105 % of control

OCc1ccccc1OC1OC(CO)C(O)C(O)C1O (stereo unspecified)
inactive: endpoint: mean survival time, dose: 50.0 mg/kg/injection, schedule: Q01DX009 (ip), vehicle: Klucel (hydroxypropylcellulose) (HPC) 96 % of control | endpoint: mean survival time, dose: 100.0 mg/kg/injection, schedule: Q01DX009 (ip), vehicle: Klucel (hydroxypropylcellulose) (HPC) 101 % of control | endpoint: mean survival time, dose: 200.0 mg/kg/injection, schedule: Q01DX009 (ip), vehicle: Klucel (hydroxypropylcellulose) (HPC) 108 % of control

CCOC(=O)C(SC)(SC)C(=O)OCC
inactive: endpoint: mean survival time, dose: 100.0 mg/kg/injection, schedule: Q01DX001 (ip), vehicle: Klucel (hydroxypropylcellulose) (HPC) 106 % of control | endpoint: mean survival time, dose: 200.0 mg/kg/injection, schedule: Q01DX001 (ip), vehicle: Klucel (hydroxypropylcellulose) (HPC) 109 % of control | endpoint: mean survival time, dose: 400.0 mg/kg/injection, schedule: Q01DX001 (ip), vehicle: Klucel (hydroxypropylcellulose) (HPC) 103 % of control
